Laboratory results as given in the NIST ThermoML archive (doi:10.1021/je800964k).
± gives the expanded uncertainty stated by the source.

Settings: Liquid, Hot wire method

COC [dimethyl ether]
thermal conductivity (234.04 K, 5100 kPa): 0.1561 ± 0.0033 W/m/K
thermal conductivity (234.2 K, 600 kPa): 0.1534 ± 0.0031 W/m/K
thermal conductivity (234.29 K, 600 kPa): 0.153 ± 0.0031 W/m/K
thermal conductivity (234.33 K, 10000 kPa): 0.16 ± 0.0033 W/m/K
thermal conductivity (234.43 K, 29800 kPa): 0.1704 ± 0.0035 W/m/K
thermal conductivity (234.44 K, 30000 kPa): 0.1709 ± 0.0035 W/m/K
thermal conductivity (234.58 K, 600 kPa): 0.1538 ± 0.0031 W/m/K
thermal conductivity (234.66 K, 5300 kPa): 0.1568 ± 0.0033 W/m/K
thermal conductivity (234.7 K, 20200 kPa): 0.1655 ± 0.0034 W/m/K
thermal conductivity (234.71 K, 10400 kPa): 0.1605 ± 0.0033 W/m/K
thermal conductivity (234.72 K, 5300 kPa): 0.1562 ± 0.0032 W/m/K
thermal conductivity (234.79 K, 30100 kPa): 0.1703 ± 0.0035 W/m/K
thermal conductivity (235 K, 20100 kPa): 0.1654 ± 0.0034 W/m/K
thermal conductivity (235.27 K, 20200 kPa): 0.1655 ± 0.0034 W/m/K
thermal conductivity (235.32 K, 10700 kPa): 0.1598 ± 0.0033 W/m/K
thermal conductivity (253.99 K, 10200 kPa): 0.1528 ± 0.0031 W/m/K
thermal conductivity (254.02 K, 600 kPa): 0.1422 ± 0.0029 W/m/K
thermal conductivity (254.11 K, 20400 kPa): 0.1582 ± 0.0032 W/m/K
thermal conductivity (254.12 K, 30200 kPa): 0.1633 ± 0.0033 W/m/K
thermal conductivity (254.16 K, 600 kPa): 0.1427 ± 0.0029 W/m/K
thermal conductivity (254.2 K, 20100 kPa): 0.1579 ± 0.0032 W/m/K
thermal conductivity (254.22 K, 10400 kPa): 0.1529 ± 0.0031 W/m/K
thermal conductivity (254.34 K, 30300 kPa): 0.1643 ± 0.0033 W/m/K
thermal conductivity (254.37 K, 20100 kPa): 0.1583 ± 0.0032 W/m/K
thermal conductivity (254.42 K, 600 kPa): 0.1427 ± 0.0029 W/m/K
thermal conductivity (254.42 K, 5100 kPa): 0.1467 ± 0.003 W/m/K
thermal conductivity (254.81 K, 10100 kPa): 0.1522 ± 0.0031 W/m/K
thermal conductivity (254.88 K, 5100 kPa): 0.1466 ± 0.003 W/m/K
thermal conductivity (255.08 K, 5000 kPa): 0.1471 ± 0.003 W/m/K
thermal conductivity (257.35 K, 29900 kPa): 0.164 ± 0.0033 W/m/K
thermal conductivity (273.93 K, 5000 kPa): 0.1396 ± 0.0029 W/m/K
thermal conductivity (274.08 K, 5100 kPa): 0.1396 ± 0.0029 W/m/K
thermal conductivity (274.48 K, 5000 kPa): 0.1404 ± 0.0029 W/m/K
thermal conductivity (274.56 K, 29800 kPa): 0.1585 ± 0.0032 W/m/K
thermal conductivity (274.57 K, 30400 kPa): 0.1579 ± 0.0032 W/m/K
thermal conductivity (274.6 K, 20000 kPa): 0.1523 ± 0.0031 W/m/K
thermal conductivity (274.9 K, 10500 kPa): 0.1456 ± 0.003 W/m/K
thermal conductivity (274.9 K, 20300 kPa): 0.1522 ± 0.0031 W/m/K
thermal conductivity (275.12 K, 20300 kPa): 0.1523 ± 0.0031 W/m/K
thermal conductivity (275.22 K, 10200 kPa): 0.1452 ± 0.003 W/m/K
thermal conductivity (275.3 K, 30600 kPa): 0.1582 ± 0.0032 W/m/K
thermal conductivity (275.31 K, 700 kPa): 0.1342 ± 0.0028 W/m/K
thermal conductivity (275.74 K, 700 kPa): 0.1343 ± 0.0028 W/m/K
thermal conductivity (276.02 K, 10500 kPa): 0.1459 ± 0.003 W/m/K
thermal conductivity (276.44 K, 700 kPa): 0.1347 ± 0.0028 W/m/K
thermal conductivity (293.79 K, 5100 kPa): 0.1305 ± 0.0027 W/m/K
thermal conductivity (293.8 K, 800 kPa): 0.1249 ± 0.0026 W/m/K
thermal conductivity (294.15 K, 800 kPa): 0.1252 ± 0.0026 W/m/K
thermal conductivity (294.16 K, 10000 kPa): 0.1362 ± 0.0028 W/m/K
thermal conductivity (294.22 K, 10200 kPa): 0.1364 ± 0.0028 W/m/K
thermal conductivity (294.3 K, 29800 kPa): 0.1495 ± 0.003 W/m/K
thermal conductivity (294.45 K, 800 kPa): 0.1248 ± 0.0026 W/m/K
thermal conductivity (294.45 K, 4900 kPa): 0.1305 ± 0.0027 W/m/K
thermal conductivity (294.59 K, 29900 kPa): 0.1486 ± 0.003 W/m/K
thermal conductivity (294.68 K, 20600 kPa): 0.1417 ± 0.0029 W/m/K
thermal conductivity (294.84 K, 5200 kPa): 0.1307 ± 0.0027 W/m/K
thermal conductivity (295.13 K, 20300 kPa): 0.1417 ± 0.0029 W/m/K
thermal conductivity (295.22 K, 10000 kPa): 0.1356 ± 0.0028 W/m/K
thermal conductivity (296.32 K, 20200 kPa): 0.1415 ± 0.0029 W/m/K
thermal conductivity (314.01 K, 5100 kPa): 0.1191 ± 0.0024 W/m/K
thermal conductivity (314.06 K, 1000 kPa): 0.1143 ± 0.0023 W/m/K
thermal conductivity (314.11 K, 5200 kPa): 0.1189 ± 0.0024 W/m/K
thermal conductivity (314.39 K, 1000 kPa): 0.1145 ± 0.0024 W/m/K
thermal conductivity (314.39 K, 5100 kPa): 0.1195 ± 0.0024 W/m/K
thermal conductivity (314.43 K, 10200 kPa): 0.1242 ± 0.0025 W/m/K
thermal conductivity (314.6 K, 30100 kPa): 0.1385 ± 0.0028 W/m/K
thermal conductivity (314.66 K, 1000 kPa): 0.1137 ± 0.0023 W/m/K
thermal conductivity (314.81 K, 10200 kPa): 0.1241 ± 0.0025 W/m/K
thermal conductivity (314.88 K, 30000 kPa): 0.1382 ± 0.0028 W/m/K
thermal conductivity (315.01 K, 20400 kPa): 0.1313 ± 0.0027 W/m/K
thermal conductivity (315.06 K, 10100 kPa): 0.1242 ± 0.0025 W/m/K
thermal conductivity (315.07 K, 20100 kPa): 0.1318 ± 0.0027 W/m/K
thermal conductivity (315.37 K, 30400 kPa): 0.1384 ± 0.0028 W/m/K
thermal conductivity (315.55 K, 20000 kPa): 0.1318 ± 0.0027 W/m/K
thermal conductivity (333.73 K, 1500 kPa): 0.1079 ± 0.0022 W/m/K
thermal conductivity (333.92 K, 5200 kPa): 0.1113 ± 0.0023 W/m/K
thermal conductivity (334.03 K, 1500 kPa): 0.1075 ± 0.0022 W/m/K
thermal conductivity (334.09 K, 30000 kPa): 0.1283 ± 0.0028 W/m/K
thermal conductivity (334.31 K, 20200 kPa): 0.1229 ± 0.0025 W/m/K
thermal conductivity (334.38 K, 30100 kPa): 0.1287 ± 0.0027 W/m/K
thermal conductivity (334.47 K, 1500 kPa): 0.1078 ± 0.0022 W/m/K
thermal conductivity (334.55 K, 5100 kPa): 0.1108 ± 0.0023 W/m/K
thermal conductivity (334.7 K, 10200 kPa): 0.1156 ± 0.0024 W/m/K
thermal conductivity (334.79 K, 20200 kPa): 0.1224 ± 0.0025 W/m/K
thermal conductivity (334.85 K, 5200 kPa): 0.1116 ± 0.0023 W/m/K
thermal conductivity (334.9 K, 30200 kPa): 0.1288 ± 0.0027 W/m/K
thermal conductivity (334.91 K, 10200 kPa): 0.1154 ± 0.0024 W/m/K
thermal conductivity (335.09 K, 30400 kPa): 0.1294 ± 0.0027 W/m/K
thermal conductivity (335.29 K, 20100 kPa): 0.1228 ± 0.0025 W/m/K
thermal conductivity (335.37 K, 10100 kPa): 0.1151 ± 0.0024 W/m/K
thermal conductivity (335.72 K, 20000 kPa): 0.1223 ± 0.0025 W/m/K
thermal conductivity (335.76 K, 10300 kPa): 0.1146 ± 0.0023 W/m/K
thermal conductivity (353.73 K, 10300 kPa): 0.1059 ± 0.0022 W/m/K
thermal conductivity (353.93 K, 30500 kPa): 0.1206 ± 0.0025 W/m/K
thermal conductivity (353.97 K, 30100 kPa): 0.1208 ± 0.0025 W/m/K
thermal conductivity (354.06 K, 10200 kPa): 0.1053 ± 0.0022 W/m/K
thermal conductivity (354.1 K, 20400 kPa): 0.1145 ± 0.0023 W/m/K
thermal conductivity (354.15 K, 5800 kPa): 0.0998 ± 0.0021 W/m/K
thermal conductivity (354.21 K, 2300 kPa): 0.0973 ± 0.002 W/m/K
thermal conductivity (354.29 K, 5300 kPa): 0.1005 ± 0.0021 W/m/K
thermal conductivity (354.45 K, 2300 kPa): 0.097 ± 0.002 W/m/K
thermal conductivity (354.59 K, 30100 kPa): 0.1208 ± 0.0025 W/m/K
thermal conductivity (354.86 K, 2300 kPa): 0.0971 ± 0.002 W/m/K
thermal conductivity (354.97 K, 5200 kPa): 0.1 ± 0.0021 W/m/K
thermal conductivity (355.08 K, 20000 kPa): 0.1141 ± 0.0023 W/m/K
thermal conductivity (355.18 K, 2300 kPa): 0.0971 ± 0.002 W/m/K
thermal conductivity (355.36 K, 20100 kPa): 0.1142 ± 0.0023 W/m/K
thermal conductivity (355.46 K, 5200 kPa): 0.1012 ± 0.0021 W/m/K
thermal conductivity (374.25 K, 10700 kPa): 0.0988 ± 0.002 W/m/K
thermal conductivity (374.25 K, 20500 kPa): 0.1071 ± 0.0022 W/m/K
thermal conductivity (374.3 K, 30400 kPa): 0.1129 ± 0.0023 W/m/K
thermal conductivity (374.62 K, 30300 kPa): 0.1133 ± 0.0023 W/m/K
thermal conductivity (374.81 K, 29900 kPa): 0.1135 ± 0.0023 W/m/K
thermal conductivity (374.85 K, 3300 kPa): 0.0871 ± 0.0018 W/m/K
thermal conductivity (374.85 K, 5100 kPa): 0.0908 ± 0.0019 W/m/K
thermal conductivity (374.91 K, 5000 kPa): 0.0908 ± 0.0019 W/m/K
thermal conductivity (375.13 K, 3300 kPa): 0.0869 ± 0.0019 W/m/K
thermal conductivity (375.27 K, 5000 kPa): 0.0911 ± 0.0019 W/m/K
thermal conductivity (375.38 K, 3300 kPa): 0.0867 ± 0.0018 W/m/K
thermal conductivity (375.68 K, 20200 kPa): 0.1065 ± 0.0022 W/m/K
thermal conductivity (376.02 K, 20000 kPa): 0.1065 ± 0.0022 W/m/K
thermal conductivity (376.38 K, 10600 kPa): 0.0976 ± 0.002 W/m/K
